Reference: article PMC3757248, “Antiestrogen-binding site ligands induce autophagy in myeloma cells that proceeds through alteration of cholesterol metabolism” (Oncotarget, 2013)

Experiments:
LP-1 cells [1] = assay: Sterols accumulated in cells, HPLC and GC/MS; assay type: cell-based, human; settings: LP1, 48 h incubation
Method: (§1) The organic layer was reduced to dryness under a flux of argon and the residue was resuspended in ethanol. Sterols were analyzed by liquid chromatography and gas-liquid chromatography as described before. Neutral lipids and sphingomyelin analyses were done according to previously published procedures.

RPMI 8226 cells [2] = assay: Sterols accumulated in cells, HPLC and GC/MS; assay type: cell-based, human; settings: RPMI 8226, 48 h incubation
Method: as §1

RPMI 8226 cells [3] = assay: Electron microscopy for MLBs, AVs and UVs; assay type: cell-based, human; settings: 48 h, 10 μM drug (PBPE 40 μM)
LP-1 cells [4] = assay: Electron microscopy for MLBs, AVs and UVs; assay type: cell-based, human; settings: 48 h, 10 μM drug (PBPE 40 μM)
LP-1 cells [5] = assay: Presence of 5,6-EC in cells by GC/MS; assay type: cell-based, human; settings: 48 h, 10 μM drug (PBPE 40 μM)
Method: as §1

RPMI 8226 cells [6] = assay: Presence of 5,6-EC in cells by GC/MS; assay type: cell-based, human; settings: 48 h, 10 μM drug (PBPE 40 μM)
Method: as §1

HMCLs = assay: Free sterol accumulation in HMCLs; assay type: cell-based, human
Method: as §1

RPMI 8226 and LP-1 cells [7] = assay: Degradation of long-lived proteins; assay type: cell-based, human; settings: both cell lines, 10 μM OHT, 40 μM PBPE
Method: The degradation of long-lived proteins was measured as described previously. Briefly, HMCLs were incubated for 24 h at 37°C with 0.2 μCi/ml of L-[[14]C]valine in complete medium. Cells were then washed resuspended in medium with no nutrients but supplemented with 10 mM valine. After the first h of incubation, the chase medium was replaced by complete medium and the incubation continued for 5 h. […] Radiolabeled proteins present in the chase medium as well as in cells were precipitated with 10% trichloroacetic acid (v/v) at 4°C. Radioactivity was measured by scintillation counting. The rate of protein degradation was calculated from the ratio of radioactivity in the medium to that of precipitated cell fraction.

RPMI 8226 and LP-1 cells [8] = assay: Intracellular free sterol, TG and SM contents; assay type: cell-based, human; settings: 5 µM OHT, 20 µM PBPE or 5 µM RU 58668 for three days
Method: as §1

Karpas 620 = tested on: Karpas 620; parameters: method as in earlier work; settings: cited from earlier work
LP-1 = tested on: LP-1; parameters: method as in earlier work; settings: cited from earlier work
NCI-H929 = tested on: NCI-H929; parameters: method as in earlier work; settings: cited from earlier work
OPM-2 = tested on: OPM-2; parameters: method as in earlier work; settings: cited from earlier work
RPMI 8226 = tested on: RPMI 8226; parameters: method as in earlier work; settings: cited from earlier work
U266 = tested on: U266; parameters: method as in earlier work; settings: cited from earlier work
MM tumors = tested on: MM tumors; parameters: method as in PMID 20033476, PMID 16753295; settings: xenografted mice bearing MM tumors; cited from earlier work
AEBS = AEBS (Homo sapiens, UniProt Q15125+Q9UBM7); assay: Binding to the AEBS in HMCLs; parameters: endogenous in cells; host or cells: RPMI 8226 and LP-1 human multiple myeloma cell lines
AEBS, sequence (Q15125 whole entry): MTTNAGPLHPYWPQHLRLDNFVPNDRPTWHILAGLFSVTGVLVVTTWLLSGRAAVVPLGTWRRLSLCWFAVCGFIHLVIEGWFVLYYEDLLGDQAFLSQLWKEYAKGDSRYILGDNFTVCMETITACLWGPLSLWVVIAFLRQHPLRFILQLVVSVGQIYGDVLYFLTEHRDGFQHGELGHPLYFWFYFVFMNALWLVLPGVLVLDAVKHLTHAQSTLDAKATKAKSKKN
AEBS, sequence (Q9UBM7 whole entry): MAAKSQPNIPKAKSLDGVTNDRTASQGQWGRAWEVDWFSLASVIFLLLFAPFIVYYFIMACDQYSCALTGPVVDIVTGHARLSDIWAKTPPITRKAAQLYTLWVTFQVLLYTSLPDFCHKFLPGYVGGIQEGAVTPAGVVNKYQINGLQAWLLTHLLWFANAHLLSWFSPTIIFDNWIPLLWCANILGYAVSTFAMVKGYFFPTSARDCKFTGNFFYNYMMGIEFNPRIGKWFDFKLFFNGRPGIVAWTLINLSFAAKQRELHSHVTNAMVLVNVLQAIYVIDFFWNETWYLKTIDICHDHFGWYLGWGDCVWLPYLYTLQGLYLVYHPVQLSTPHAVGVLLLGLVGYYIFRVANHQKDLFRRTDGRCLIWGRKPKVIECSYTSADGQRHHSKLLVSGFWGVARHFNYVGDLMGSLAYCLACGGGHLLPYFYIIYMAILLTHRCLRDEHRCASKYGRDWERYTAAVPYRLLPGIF

ChEH = ChEH (Homo sapiens, UniProt Q15125+Q9UBM7); assay: ChEH activity in HMCLs (TLC); assay type: cell-based; parameters: endogenous in cells; host or cells: RPMI 8226 and LP-1 human multiple myeloma cell lines; settings: OHT, Tam, RU 58668 10 μM, PBPE 40 μM
ChEH, sequence (Q15125 whole entry): as the sequence (Q15125 whole entry) above
ChEH, sequence (Q9UBM7 whole entry): as the sequence (Q9UBM7 whole entry) above
Excerpt: Cells were then pelleted and extracted with chloroform/methanol (2/1). The organic layer was reduced to dryness under a flux of argon and the residue was resuspended in EtOH. Samples were applied to thin layer chromatography (TLC) plates and developed using ethyl acetate as previously described. The radioactive metabolites were visualized by autoradiography using Kodak Biomax MS films.

[9] = RPMI 8226, presence of 500 μM Vit E

## CC/C(=C(\c1ccc(O)cc1)c1ccc(OCCN(C)C)cc1)c1ccccc1 [OHT]
LP-1 cells [1]
  Desmosterol: 44.4 percent by the weight of total sterol
  Zymostenol: 1.9 percent by the weight of total sterol
RPMI 8226 cells [2]
  Zymostenol: 1.8 percent by the weight of total sterol
RPMI 8226 cells [3]; RPMI 8226, absence of Vit E
  AV: + + (The sign + means that 80 % cells were positive and contained at least 5 vesicles)
  MLB: + + (The sign + means that 80 % cells were positive and contained at least 5 vesicles)
  UV: + (The sign + means that 80 % cells were positive and contained at least 5 vesicles)
RPMI 8226 cells [3]; [9]
  AV: + + (The sign + means that 80 % cells were positive and contained at least 5 vesicles)
  MLB: + + (The sign + means that 80 % cells were positive and contained at least 5 vesicles)
  UV: − (otherwise they were considered as negative (-))
LP-1 cells [4]; LP-1, absence of Vit E
  AV: + + (The sign + means that 80 % cells were positive and contained at least 5 vesicles)
  MLB: + + (The sign + means that 80 % cells were positive and contained at least 5 vesicles)
  UV: + (The sign + means that 80 % cells were positive and contained at least 5 vesicles)
LP-1 cells [4]; LP-1, presence of 500 μM Vit E
  AV: + + (The sign + means that 80 % cells were positive and contained at least 5 vesicles)
  MLB: + + (The sign + means that 80 % cells were positive and contained at least 5 vesicles)
  UV: − (otherwise they were considered as negative (-))
LP-1 cells [5]; LP-1, absence of Vit E
  5,6-EC: +
LP-1 cells [5]; LP-1, presence of 500 μM Vit E
  5,6-EC: −
RPMI 8226 cells [6]; RPMI 8226, absence of Vit E
  5,6-EC: +
RPMI 8226 cells [6]; [9]
  5,6-EC: −
HMCLs
  free sterol accumulated: accumulation of desmosterol
RPMI 8226 and LP-1 cells [7]
  rate of long-lived protein degradation: stimulated
RPMI 8226 and LP-1 cells [8]
  intracellular free sterol, triacylglycerol (TG) and sphingomyelin (SM) contents: increases
Karpas 620
  SERM and SERDs effects on MM cell lines: No response
LP-1
  SERM and SERDs effects on MM cell lines: G1-arrest and apoptosis
NCI-H929
  SERM and SERDs effects on MM cell lines: G1-arrest and apoptosis
OPM-2
  SERM and SERDs effects on MM cell lines: No response
RPMI 8226
  SERM and SERDs effects on MM cell lines: G1-arrest and apoptosis
U266
  SERM and SERDs effects on MM cell lines: G1-arrest and apoptosis
MM tumors
  tumor growth: block tumor growth
AEBS
  affinity for the AEBS: high affinity
ChEH
  ChEH activity, conversion of 5,6-EC into CT by TLC: ChEH activity was inhibited
